#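 GI50 is the concentration that inhibits growth by half. The concentration for full growth arrest is given as TGI.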
# Key:
# Assay in all cases: DTP human tumour cell line panel, 384-well format
# [1] = system: A549 NSCLC
# [2] = system: BT-549 breast
# [3] = system: CAKI-1 renal
# [4] = system: COLO 205 colon
# [5] = system: HL-60(TB) leukemia
# [6] = system: HOP-62 NSCLC
# [7] = system: HOP-92 NSCLC
# [8] = system: HS 578T breast
# [9] = system: HT29 colon
# [10] = system: KM12 colon
# [11] = system: M14 melanoma
# [12] = system: MALME-3M melanoma
# [13] = system: MCF7 breast
# [14] = system: MDA-MB-231 breast
# [15] = system: NCI-H226 lung
# [16] = system: NCI-H23 lung
# [17] = system: NCI-H322M lung
# [18] = system: OVCAR-8 ovarian
# [19] = system: RPMI-8226 leukemia
# [20] = system: RXF 393 renal
# [21] = system: SF-268 CNS
# [22] = system: SF-295 CNS
# [23] = system: SF-539 CNS
# [24] = system: SK-MEL-28 melanoma
# [25] = system: SNB-75 CNS
# [26] = system: SR leukemia
# [27] = system: SW-620 colon
compound,measurement,setting,value
Cc1cc(Nc2ncc(F)c(N[C@H]3[C@@H](C(N)=O)[C@@H]4C=C[C@H]3C4)n2)ccc1N1CCN(C)CC1,GI50,[1],20.1 nM
same,TGI,[1],3250 nM
same,GI50,[2],14.6 nM
same,TGI,[2],51.5 nM
same,GI50,[3],< 10 nM
same,TGI,[3],1200 nM
same,GI50,[4],< 10 nM
same,TGI,[4],< 10 nM
same,GI50,[5],< 10 nM
same,TGI,[5],1030 nM
same,GI50,[6],25 nM
same,TGI,[6],237 nM
same,GI50,[7],15.6 nM
same,TGI,[7],184 nM
same,GI50,[8],12.6 nM
same,TGI,[8],95.6 nM
same,GI50,[9],44.4 nM
same,TGI,[9],1140 nM
same,GI50,[10],173 nM
same,TGI,[10],1500 nM
same,GI50,[11],< 10 nM
same,TGI,[11],2100 nM
same,GI50,[12],< 10 nM
same,TGI,[12],1340 nM
same,GI50,[13],436 nM
same,TGI,[13],2140 nM
same,GI50,[14],26 nM
same,TGI,[14],1570 nM
same,GI50,[15],25.7 nM
same,TGI,[15],661 nM
same,GI50,[16],35.9 nM
same,TGI,[16],1160 nM
same,GI50,[17],766 nM
same,TGI,[17],2260 nM
same,GI50,[18],88 nM
same,TGI,[18],385 nM
same,GI50,[19],< 10 nM
same,TGI,[19],< 10 nM
same,GI50,[20],30.5 nM
same,TGI,[20],294 nM
same,GI50,[21],73.5 nM
same,TGI,[21],866 nM
same,GI50,[22],21.8 nM
same,TGI,[22],276 nM
same,GI50,[23],24.8 nM
same,TGI,[23],138 nM
same,GI50,[24],1210 nM
same,TGI,[24],2550 nM
same,GI50,[25],15.2 nM
same,TGI,[25],119 nM
same,GI50,[26],< 10 nM
same,TGI,[26],< 10 nM
same,GI50,[27],26.2 nM
same,TGI,[27],1500 nM

# — PubChem BioAssay (NCI)
